{"source": "patent US20070275999A1", "about": "“PHARMACEUTICAL COMPOSITIONS CONTAINING A HYPOGLYCEMIC AGENT(S) FOR IMPROVING OR TREATING IMPAIRED GLUCOSE TOLERANCE, BORDERLINE DIABETES, INSULIN RESISTANCE OR HYPERINSULINEMIA” (Ajinomoto Co., Inc., priority 2005, published 2007)", "key": {"Zucker Fatty (ZF) rats [1]": {"test_system": "Zucker Fatty (ZF) rats", "assay": "Circadian changes of blood glucose and insulin under restricted feeding after four weeks of treatment", "type": "in vivo, rat", "source_text": "The effectiveness of mitiglinide was examined by using Zucker Fatty (ZF) rats, which have the feature of obesity and insulin resistance. It is known that though ZF rats have hyperinsulinemia and impaired glucose tolerance, their fasting blood glucose is within a normal range and, therefore, their pathology is similar to IGT in human being (Br J Pharmacol 125, 1708-14, 1998).\nMale Zucker Fatty rats of 6 weeks old were introduced and acclimatized to the restricted feeding of one hour each (9:00 to 10:00 and 15:00 to 16:00) twice per a day. After acclimatization for one week, the rats were randomly divided into two groups, and drugs were administered to them for four weeks. As the drugs, mitiglinide suspended in 0.5% methylcellulose was forcibly orally administered to one group to become a dose of 3 mg/kg, and only 0.5% methylcellulose solution that is a dose vehicle was forcibly orally administered to the other group just before each meal twice per a day. The circadian changes of their blood glucose and insulin that occurred under the restricted feeding were measured upon starting the administration and in the fourth week after its start. The drugs were not administered on the measurement day, and their blood was collected through the caudal vein before morning feeding (9:00), one hour after the feeding (10:00), two hours after the feeding (11:00), before afternoon feeding (15:00), one hour after the feeding (16:00), and two hours after the feeding (17:00). Then, their blood glucose and insulin were measured in accordance with the routine method."}, "Zucker Fatty (ZF) rats [2]": {"test_system": "Zucker Fatty (ZF) rats", "assay": "Insulin tolerance test (ITT)", "type": "in vivo, rat", "protocol": "On another day of the fourth week, the insulin tolerance test (ITT) was conducted in order to examine the degree of improvement of the general insulin resistance. Commercially available insulin preparation (NOVORIN R, NOVO) diluted to 0.5 U/mL with a normal saline solution was subcutaneously injected to the back of ZF rats fasted overnight to become 0.5 U/kg. Their blood was collected through the caudal vein 15, 30, 60, 120 and 180 minutes after the administration to measure their blood glucose. The blood glucose was measured in accordance with the routine method.\nIn response to the above results, ITT was conducted in order to more precisely quantify the degree of improvement of the general insulin sensitivity. […] However, the blood glucose lowered by about 50% of the level before the administration in 60 minutes after the administration of insulin due to the treatment by mitiglinide."}, "[3]": {"conditions": "feeding 9:00 to 10:00 and 15:00 to 16:00, fourth week, 3 mg/kg"}, "[4]": {"conditions": "male ZF rats, 3 mg/kg orally just before each meal twice per day for four weeks, measured in fourth week, no drug on measurement day"}}}
{"smiles": "O=C(O)[C@H](CC(=O)N1C[C@H]2CCCC[C@H]2C1)Cc1ccccc1", "note": "[Mitiglinide, (2S)-2-benzyl-4-[(3aR, 7aS) -octahydro-2H-isoindole-2-yl]-4-oxobutanoic acid]", "values": [{"measurement": "Circadian changes of the blood glucose (FIG. 1)", "setting": "Zucker Fatty (ZF) rats [1]; [3]", "value": "no change"}, {"measurement": "Insulin level in the blood plasma (FIG. 2)", "setting": "Zucker Fatty (ZF) rats [1]; [3]", "value": "decrease of the insulin level was clearly seen"}, {"measurement": "Sum of the circadian changes of blood glucose", "setting": "Zucker Fatty (ZF) rats [1]; [4]", "value": "1050 ± 20", "unit": "mg·h/dL"}, {"measurement": "Sum of the circadian changes of insulin", "setting": "Zucker Fatty (ZF) rats [1]; [4]", "value": "224 ± 11", "unit": "ng·h/mL"}, {"measurement": "Sum of blood glucose", "setting": "Zucker Fatty (ZF) rats [2]; ITT in fourth week, insulin 0.5 U/kg s.c., ZF rats fasted overnight, blood 15-180 min after insulin", "value": "243 ± 7", "unit": "mg·h/dL"}, {"measurement": "Blood glucose lowering relative to the level before the administration of insulin", "setting": "Zucker Fatty (ZF) rats [2]; ITT, 60 minutes after insulin 0.5 U/kg s.c., FIG. 3", "value": "about 50%"}]}
